{
  "source": "patent US20250213514A1",
  "about": "“STABLE, LIQUID PHARMACEUTICAL COMPOSITIONS COMPRISING MELPHALAN” (GOOD HEALTH, LLC, priority 2022, published 2025)",
  "origin": "cited, not measured here",
  "note": "Like-named read-outs stand apart in the source and are kept apart here.",
  "data": [
    {"smiles": "N[C@@H](Cc1ccc(N(CCCl)CCCl)cc1)C(=O)O", "note": "[Melphalan]", "values": [
      {"measurement": "Solubility", "setting": "in ethanol, methanol", "value": "slightly soluble"},
      {"measurement": "Solubility", "setting": "in propylene glycol and dilute mineral acids", "value": "soluble"},
      {"measurement": "Solubility", "setting": "in water, chloroform, and ether", "value": "practically insoluble"}
    ]}
  ]
}
